Test results as given in patent US20090317414A1, “CANCER VACCINE COMPRISING A MUCIN 1 (MUC1) T CELL EPITOPE-DERIVED PEPTIDE” (4G VACCINES PTY LTD, priority 2006, published 2009).
Like-named read-outs stand apart in the source and are kept apart here. No end group written: not given here.

Legend:
soluble H-2K^b = molecular target: T1, soluble H-2K^b (Mus musculus, UniProt P01901); assay: Affinity measurements for binding of peptides to soluble H-2K^b (inhibition assay); conditions: for increase in peptide affinity compared to MUC1-8 (competition studies): discussion, temperature not stated
T1 construct: heavy chain residues 1-274 with C-terminal His-tag and β2-microglobulin residues 1-99; His-tag (C); made in house; host or cells: Drosophila melanogaster cells
T1 sequence (P01901 22-295): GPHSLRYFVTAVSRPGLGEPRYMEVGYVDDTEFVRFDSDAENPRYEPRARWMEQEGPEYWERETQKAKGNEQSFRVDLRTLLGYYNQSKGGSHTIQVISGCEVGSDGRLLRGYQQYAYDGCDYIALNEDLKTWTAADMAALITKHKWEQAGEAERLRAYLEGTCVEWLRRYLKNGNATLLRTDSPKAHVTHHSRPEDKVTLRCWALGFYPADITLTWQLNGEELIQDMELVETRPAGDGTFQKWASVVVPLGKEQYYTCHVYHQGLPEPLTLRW
T1 sequence (P01887 21-119 partner): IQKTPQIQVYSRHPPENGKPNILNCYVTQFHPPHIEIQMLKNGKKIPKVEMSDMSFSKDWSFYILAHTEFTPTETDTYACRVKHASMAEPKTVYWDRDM
Description: The soluble extracellular domains of H-2K^b (heavy chain […]-terminal His-tag and β2-microglobulin […]. melanogaster cells, under the control of a metallothionein promoter as previously described. Briefly, D. melanogaster cells were expanded to large scale (up to 6 L) in serum free Insect Xpress® media (Cambrex Corporation, East Rutherford, N.J., United States of America) and CuSO4 (625 μM final concentration) was added 3-5 days before harvesting to induce expression of H-2K^b. The supernatant was concentrated using a […] tangential flow concentrator (PALL Corporation, East Hills, N.Y., United States of America) using a 10 kDa MWCO membrane (PALL) and then loaded onto an Ni-NTA column and eluted using 10-250 mM imidazole buffer gradient, pH 7.5. […] Affinity measurements for binding of peptides to soluble H-2K^b molecules were performed as previously described.

[1] = tested on: MCF7 cells (human MUC1^+ breast cancer cell line); conditions: HLA-A2 transgenic mice; previous studies [59]; cited from earlier work
[2] = tested on: MUC1×HLA-A2 transgenic mice; assay: IFN-γ ELISpot on splenocytes of MUC1×HLA-A2 transgenic mice immunised with peptide-pulsed DC; type: in vivo, mouse; conditions: for recognition of all peptides higher than MUC1-8: MUC1×HLA-A2 transgenic mice
Description: (§1) C57BL/6 (H-2^b) or MUC1×HLA-A2 (H-2^b/H-2^d/HLA-A2) transgenic 6-8 week old mice were used. Bone marrow cells from C57BL/6 or MUC1×HLA-A2 female mice were cultured at 1×10^6 cells/ml in tissue culture media, supplemented with 10 ng/ml GM-CSF/IL-4. At day 6, cells were washed, re-suspended in the same culture media and 20 μg/ml peptides were loaded on DCs for 3 hr. Pulsed DC were washed and 100 μl (1-2×10^6 cells) injected intradermally in female mice into the base of tail. After 14 days mice were boosted and 16 days later splenocytes assessed by ELISpot.
(§2) To assess peptide specific IFN-γ production by CD8^+ T cells to each peptide, splenocytes from immunised mice were used in IFN-γ ELISpot assays. Spleen cells were incubated with 10^−5-10^−10 M of each MUC1 peptide, irrelevant peptide (OVA8, […]; SEQ ID NO: 8) or internal positive control concanavalin A (ConA) for 18 hr at 37° C., 8% CO2 on nitrocellulose plates [pre-coated with an anti-murine IFN-γ monoclonal antibody]. Plates were developed as previously described.

[3] = molecular target: T2, MHC class I, H-2K^b on RMA-S cells (Mus musculus, UniProt P01901); assay: Peptide stabilisation assay using RMA-S cells (FACScan); type: cell-based, murine; conditions: TAP2-deficient RMA-S cells at 26° C.
T2 construct: MHC class I molecules in the murine cell line RMA-S; endogenous in cells; host or cells: RMA-S (murine, C57BL/6, TAP2-deficient)
T2 sequence (P01901 22-369): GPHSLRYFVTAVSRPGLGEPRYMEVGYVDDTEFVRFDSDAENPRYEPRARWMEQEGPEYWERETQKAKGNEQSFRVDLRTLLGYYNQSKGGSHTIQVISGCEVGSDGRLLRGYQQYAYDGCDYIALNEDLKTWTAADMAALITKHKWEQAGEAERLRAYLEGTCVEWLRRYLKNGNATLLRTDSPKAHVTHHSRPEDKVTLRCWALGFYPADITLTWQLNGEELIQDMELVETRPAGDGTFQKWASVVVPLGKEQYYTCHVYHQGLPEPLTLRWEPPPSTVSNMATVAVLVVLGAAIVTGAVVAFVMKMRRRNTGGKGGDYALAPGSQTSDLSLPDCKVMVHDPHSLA
T2 sequence (P01887 21-119 partner): T1 sequence (P01887 21-119 partner)
Description: MHC class I molecules in the murine cell line RMA-S (C57BL/6 TAP2-deficient cells) can be used to measure the direct binding of peptides to class I molecules in vitro. RMA-S cells (5×10^5 cells) were incubated with peptides (10^−4-10^−13 M) at 26° C. for 3 hr then transferred to 37° C. for 30 min. After washing with 0.5% BSA/PBS (2 ml), anti-H-2K^b (HB-158) IgG2a as supernatant (1/50 dilution, 100 μl) was added to RMA-S peptide loaded cells and incubated for 45 minutes at 4° C. The cells were washed once again and 100 μl (1:500 dilution) of FITC-conjugated sheep (Fab′)2 anti-mouse immunoglobulin was added and incubated for 45 min at 4° C.; after further washing, cells were analyzed by FACScan.

C57BL/6 mice = assay: IFN-γ ELISpot on splenocytes of C57BL/6 mice immunised with peptide-pulsed DC; type: in vivo, mouse
Description: as §1, §2

HLA-A2 = HLA-A2 (Homo sapiens, UniProt P04439, D140Y/D185E/D98H/E176V/E277Q/G131W/G231S/I119V/I121R/I166T/I218V/L10V/L300P/L318F/N151K/N90K/P208A/P217A/Q86G/Q94H/R138H/R169H/T345S); conditions: cited from earlier work
[4] = tested on: MCF7 cells (human MUC1^+ breast cancer cell line); assay: Standard 51Cr CTL assay after immunisation of HLA-A2/K^b transgenic mice; type: in vivo, mouse; conditions: HLA-A2 transgenic mice immunised with peptide-KLH-oxidised mannan
Description: Peptide was coupled to KLH via glutaraldehyde. In brief, 2 mg KLH in 1 ml phosphate buffer saline (PBS) and 2 mg peptide in 1 ml PBS were mixed and added dropwise to 1 ml of 0.75% glutaraldehyde, and reacted overnight at room temperature. Glutaraldehyde is a bi-functional coupling reagent that links two compounds through their amino groups.
14 mg mannan was dissolved in 1 ml sodium phosphate buffer (pH 6), followed by the addition of 100 μl 0.1 M sodium periodate (dissolved in pH 6 phosphate buffer) and incubated on ice for 1 hour in the dark. 10 μL ethanediol was then added to the mixture and incubated for a further 30 mins on ice. The resultant mixture (oxidised mannan) was passed through a PD-10 column (Sephadex G-25 M column) pre-equilibrated in pH 9.0 phosphate buffer, to exclude out sodium periodate and ethanediol. Oxidised mannan (7 mg/ml) was eluted with 2 ml of pH 9 phosphate buffer, to which 1 mg peptide-KLH was added and allowed to react overnight at room temperature in the dark. Conjugation occurs via Schiff base formation between free amino groups of KLH and oxidised mannan. Samples were used without further purification. […]
HLA-A2/K^b transgenic mice were immunised with 5 μg of peptide intraperitoneally on days 0, 10, 17 and 7-10 days later CTL responses were measured using standard CTL assay as previously described.

[5] = 4° C., means of 5 values, SE 10-15%, read-out: KD 4° C.
[6] = 23° C., means of 5 values, SE 10-15%, read-out: KD 23° C.
[7] = 37° C., means of 5 values, SE 10-15%, read-out: KD 37° C.

Molecule | Kd (soluble H-2K^b; [5]) | Kd (soluble H-2K^b; [6]) | Kd (soluble H-2K^b; [7]) | increase in peptide affinity compared to MUC1-8 (competition studies) (soluble H-2K^b) | peptide concentration at which H-2K^b was stabilised [3] | also measured
CC[C@H](C)[C@H](NC(=O)[C@@H](NC(=O)[C@@H](N)CO)[C@@H](C)CC)C(=O)N[C@@H](CC(N)=O)C(=O)N[C@@H](Cc1ccccc1)C(=O)N[C@@H](CCC(=O)O)C(=O)N[C@@H](CCCCN)C(=O)N[C@@H](CC(C)C)C(=O)O [OVA8, reference compound] | 0.006 µM | 0.01 µM | – | – | – | –
CC(C)C[C@H](NC(=O)CNC(=O)[C@H](CCC(N)=O)NC(=O)[C@H](Cc1ccc(O)cc1)NC(=O)[C@@H](NC(=O)[C@H](Cc1ccc(O)cc1)NC(=O)CNC(=O)[C@@H](N)CCCNC(=N)N)C(C)C)C(=O)O [VSV8, reference compound] | – | – | – | – | – | Kd (soluble H-2K^b; KD 4° C.): 0.034 µM; Kd (soluble H-2K^b; KD 23° C.): 0.027 µM; Kd (soluble H-2K^b; KD 37° C.): 0.163 µM
DLHWASWV-KLH-oxidised mannan: mimic mutant peptide DLHWASWV conjugated to KLH and oxidised mannan, used as control (also: conjugated to KLH and oxidised mannan) | – | – | – | – | – | CTL lysis of MCF7 cells, in words [1]: able to specifically lyse MCF7 cells
SAPDFRPA [MUC1-8-5F] | 0.46 µM | 0.13 µM | 4.9 µM | 7 fold | > 10^−7 M | recognition of all peptides higher than MUC1-8 [2]: 10 fold; increased peptide affinity by mutation of MUC1-8 (soluble H-2K^b; at 23° C. and 37° C.): at least 7 fold
SAPDFRPL [MUC1-8-5F8L] | 0.16 µM | 0.06 µM | 0.3 µM | 14 fold | > 10^−9 M | T cell response by IFN-γ ELISpot, in words (C57BL/6 mice; C57BL/6 mice): the number of sfu/500,000 was higher; precursor frequency (C57BL/6 mice; after immunisation, mouse strain not given): 400 sfu/500,000 cells; T cell response by IFN-γ ELISpot, in words ([2]; MUC1×HLA-A2 transgenic mice (MUC1-8 is self)): generated even higher affinity T cells which recognised all peptides; increased peptide affinity by mutation of MUC1-8 (soluble H-2K^b; at 23° C.): 14 fold
SAPDTRPA [MUC1-8, reference compound] | 0.433 µM | 0.877 µM | 37 µM | – | – | Kd (soluble H-2K^b; 4° C., read-out: affinity measured in an inhibition assay): 0.43 µM; Kd (soluble H-2K^b; 23° C., read-out: affinity measured in an inhibition assay): 0.87 µM
SAPDTRPL [MUC1-8-8L] | 0.15 µM | 0.25 µM | 8.9 µM | 3 fold | > 10^−6 M | peptide concentration at which IFN-γ secreting T cells recognised all peptides (C57BL/6 mice; C57BL/6 mice immunised with peptide-pulsed DC): 10^−9-10^−5 M; recognition of all peptides higher than MUC1-8 [2]: 10 fold; increased peptide affinity by mutation of MUC1-8 (soluble H-2K^b; at 23° C. and 37° C.): at least 3 fold
STAPPAHGV (listed as Homo sapiens) | – | – | – | – | – | binding affinity to HLA-A2, in words (HLA-A2): low-medium affinity
TTAPPVHGL (Artifical sequence derived from human or mouse MUC1 T cell epitope) | – | – | – | – | – | CTL lysis of MCF7 cells, in words [4]: lysed MCF7 cells similarly to STAPPAHGV
TTAPPVHGL-KLH-oxidised mannan: peptide TTAPPVHGL coupled to KLH via glutaraldehyde and then to oxidised mannan (also: conjugated to KLH, conjugated to oxidised mannan) | – | – | – | – | – | CTL lysis of MCF7 cells, in words [4]: able to specifically lyse MCF7 cells
